Drawing on ChEMBL document CHEMBL5154761, “Design, synthesis, and evaluation of 9-(pyrimidin-2-yl)-9H-carbazole derivatives disrupting mitochondrial homeostasis in human lung adenocarcinoma” (Eur J Med Chem, 2022), this text covers inhibition, IC50 and Activity for 22 compounds.

Active and inactive are the calls of the source. No cut-off for these calls is given here.

Assay [1] deals with A549. Kind of assay: Cytotoxicity against human A549 cells assessed as cell growth inhibition at 10 uM incubated for 48 hrs by MTT assay relative to control. Type of assay: functional. A general note: Tetrazolium assays rely on reduction of a dye to a coloured formazan, in cell work by metabolically active cells.
For assay [2], the system named is A549. In words: Cytotoxicity against human A549 cells assessed as cell growth inhibition incubated for 48 hrs by MTT assay. Format: functional, cell-based. Conditions: A549, 48 h.
The test system of assay [3] is A549. Kind of assay: Induction of cell cycle arrest in human A549 cells assessed as accumulation at G2/M phase at 10 uM incubated for 48 hrs by PI staining based flow cytometry analysis. Type of assay: functional.

For `O=C(c1ccc(OCc2ccccc2)cc1)c1cccc2c3ccccc3n(-c3ncccn3)c12`, the inhibition (in general, how much of the control response was suppressed) at 10 µM with A549 [1] was below 50%. The concentration for half-maximal inhibition (IC50) (as a rule, the concentration that gives 50% inhibition) with A549 [2] turned out to be 2.15 µM.
As for `Cc1ccc(C(=O)c2cccc3c4ccccc4n(-c4ncccn4)c23)cc1`, the result with A549 [3] was Active. In the assay with A549 [1], the inhibition at 10 µM was determined as 50%. The half-inhibitory concentration (IC50) in the assay on A549 [2] is 10 µM.
Regarding `O=C(c1ccccc1Cl)c1cccc2c3ccccc3n(-c3ncccn3)c12`, in the assay with A549 [3], the outcome was Active. Moreover, the inhibition at 10 µM with A549 [1] is 50%. In the assay with A549 [2], the concentration for half-maximal inhibition (IC50) was found to be 6.84 µM.
On to `CC(C)(C)OC(=O)c1cccc2c3cc(Cl)ccc3n(-c3ncccn3)c12`, for which the result with A549 [3] was Active.
As for `CCOC(=O)c1cccc2c3ccccc3n(-c3ncccn3)c12`, the inhibition at 10 µM in the assay with A549 [1] stood at 50%.
On to `Cc1c2ccncc2c(C)c2c1[nH]c1ccccc12` [ELLIPTECINE], for which the IC50 in the assay on A549 [2] was 3.45 µM.
With `COc1ccc(C(=O)c2cccc3c4ccccc4n(-c4ncccn4)c23)cc1OC`, in the assay on A549 [3], the result was Active. For the same compound, in the assay on A549 [1], the inhibition at 10 µM came out at 50%. Moreover, the IC50 in the assay with A549 [2] stood at 3.1 µM.
Regarding `COc1ccccc1C(=O)c1cccc2c3ccccc3n(-c3ncccn3)c12`, the outcome in the assay with A549 [3] was Active. In addition, the inhibition at 10 µM in the assay on A549 [1] is below 50%. Also, the half-maximal inhibitory concentration (IC50) in the assay on A549 [2] amounted to 4.02 µM.
As for `O=C(OCc1ccccc1)c1cccc2c3ccccc3n(-c3ncccn3)c12`, the result in the assay on A549 [3] was Active. Also, the IC50 in the assay with A549 [2] was determined as 5.23 µM.
With `O=C(c1ccc(Br)cc1)c1cccc2c3ccccc3n(-c3ncccn3)c12`, the result with A549 [3] was Active. Besides, in the assay with A549 [1], the inhibition at 10 µM amounted to 50%. Further, the IC50 with A549 [2] came to 7.5 µM.
With `O=C(O)c1cccc2c3ccccc3n(-c3ncccn3)c12`, the concentration for half-maximal inhibition (IC50) with A549 [2] turned out to be 15.5 µM.
Take `O=C(c1cccc(Cl)c1)c1cccc2c3ccccc3n(-c3ncccn3)c12`: the result with A549 [3] was Active. In addition, the inhibition at 10 µM in the assay with A549 [1] came out at 50%. Also, the half-inhibitory concentration (IC50) in the assay on A549 [2] amounted to 7.19 µM.
`O=C(c1ccc(O)c(O)c1)c1cccc2c3ccccc3n(-c3ncccn3)c12`: the inhibition at 10 µM with A549 [1] is 50%. For the same compound, in the assay with A549 [2], the concentration for half-maximal inhibition (IC50) worked out at 8.86 µM.
For the compound `O=C(c1ccc(Cl)cc1)c1cccc2c3ccccc3n(-c3ncccn3)c12`, the result in the assay with A549 [3] was Active. In addition, the inhibition at 10 µM with A549 [1] was found to be 50%. For the same compound, in the assay on A549 [2], the IC50 stood at 6.69 µM.
In the case of `N#Cc1cccc(C(=O)c2cccc3c4ccccc4n(-c4ncccn4)c23)c1`, in the assay with A549 [1], the inhibition at 10 µM was below 50%. In the assay on A549 [2], the IC50 turned out to be 13.7 µM.
For `O=C(c1ccc(F)cc1)c1cccc2c3ccccc3n(-c3ncccn3)c12`, the result in the assay with A549 [3] was Active. Also, the inhibition at 10 µM with A549 [1] is below 50%. Moreover, the IC50 with A549 [2] came to 2.58 µM.
Regarding `O=C(c1ccco1)c1cccc2c3ccccc3n(-c3ncccn3)c12`, the result in the assay with A549 [3] was Active. Moreover, the inhibition at 10 µM in the assay on A549 [1] amounted to 50%. For the same compound, in the assay on A549 [2], the half-inhibitory concentration (IC50) was determined as 14.9 µM.
The like results for `O=C(c1ccccc1)c1cccc2c3ccccc3n(-c3ncccn3)c12` were, in that order, “Active”, 50% and 5.32 µM.
For `O=C(c1ccc(I)cc1)c1cccc2c3ccccc3n(-c3ncccn3)c12`, the result with A549 [3] was Active. For the same compound, the concentration for half-maximal inhibition (IC50) in the assay with A549 [2] worked out at 12.5 µM.
As for `COc1cccc(C(=O)c2cccc3c4ccccc4n(-c4ncccn4)c23)c1`, in the assay on A549 [3], the outcome was Active. Besides, the inhibition at 10 µM in the assay on A549 [1] came out at 50%. Further, in the assay on A549 [2], the IC50 was 2.39 µM.
The like results for `O=C(c1ccc(C(F)(F)F)cc1)c1cccc2c3ccccc3n(-c3ncccn3)c12` were, in that order, “Active”, 50% and 15.6 µM.
The like results for `O=C(c1cccs1)c1cccc2c3ccccc3n(-c3ncccn3)c12` were, in that order, “Active”, below 50% and 4.02 µM.
